# Results: PubChem BioAssay AID504868 (The Scripps Research Institute Molecular Screening Center, 2011)
# Where “and” joins values, the source holds several entries; their conditions need not be identical. Identical values can stand only once. Calls of active or inactive are those of the source. The rule behind the calls is not given here.
# Target: Neuropeptides B/W receptor type 1 (Homo sapiens) (UniProt P48145)
# Assay: GPR7 antagonist potency, late-stage follow-up, cell-based, fluorescence, dose response, set 2 (AID 504868)
# Conditions: GPR7-expressing cells, fluorescence antagonist readout
Compound,IC50 (run 1),IC50 (run 2),IC50 (run 3)
Cc1ccc(-n2ncc(Cl)c(Oc3ccc(OC(F)(F)F)cc3)c2=O)cc1,0.878 µM,0.518 µM,0.836 µM
COc1ccc(Oc2c(C#N)cnn(-c3ccc(C(C)C)cc3)c2=O)cc1,4.19 µM,2.41 µM,
COc1ccc(Oc2c(-c3ccccc3)cnn(-c3ccc(C)cc3)c2=O)cc1,> 20 µM (inactive),> 20 µM (inactive),> 20 µM (inactive)
COc1ccc(Oc2c(C3CC3)cnn(-c3ccc(C)cc3)c2=O)cc1,6.22 µM,4 µM,
COC(=O)c1cnn(-c2ccc(C(C)C)cc2)c(=O)c1Oc1ccc(OC)cc1,2.73 µM,1.88 µM,

# Results, then the compound that gave them:
IC50 (run 1),IC50 (run 2),IC50 (run 3),Compound
2.26 µM,0.844 µM,1.71 µM,Cc1ccc(-n2ncc(Cl)c(Oc3ccc(CO)cc3)c2=O)cc1
7.48 µM,7.22 µM,,COc1ccc(Oc2c(C)cnn(-c3ccc(C(C)C)cc3)c2=O)cc1
1.01 µM and 2.23 µM,0.741 µM and 1.42 µM,1.35 µM,COc1ccc(Oc2c(Cl)cnn(-c3ccc(C)cc3)c2=O)cc1
2.16 µM,1.05 µM,1.8 µM,Cc1ccc(-n2ncc(Cl)c(Oc3ccc(C(F)(F)F)cc3)c2=O)cc1
6.2 µM,4.41 µM,,COc1ccc(Oc2c(C=O)cnn(-c3ccc(C(C)C)cc3)c2=O)cc1
